Data set [1] deals with primary microglia exposed to lipopolysaccharide (LPS). As to the kind of experiment: LPS-induced gene expression in primary microglia pretreated with IBET858. The format is cell-based, mouse. As for the experimental part:
Primary Microglia Culture. Postnatal day 0 C57/Bl6 mice were decapitated in ice cold HBSS. The forebrain was rapidly dissected and treated as above in order to generate a single cell suspension. 60,000 cells per cm2 were seeded in vented, Poly-D-lysine coated flasks. Mixed glial cultures were maintained in DMEM containing 10% FBS and 1% penicillin/streptomycin for 3 weeks. After three weeks, microglia were isolated by shaking the mixed glial cultures for 4 hours at 360 rpm and re-plated at density on 100,0000 cells/cm2. Cultures were given 24 hours to settle before treatment. Cultures were pre-treated for 30 minutes with either DMSO (0.01%) or 1 uM IBET858. After 30 minutes, LPS (100 ng/ml) was added to the cultures. RNA was isolated with Trizol LS according to the manufacturer's recommendations after 1, 4 and 12 hours of LPS treatment.
To understand if BET proteins regulate the dynamic induction of pro-inflammatory gene networks, primary microglia were exposed to the bacterial cell wall component lipopolysaccharide, LPS. T, which is recognized by Tlr4, triggers a signal cascade that leads to an extensive increase in cytokine and chemokine production which causes significant damage to host tissues if left unrestrained. Nicodeme et al., “Suppression of Inflammation by a Synthetic Histone Mimic,” Nature 468:1119-1123 (2010), which is hereby incorporated by reference in its entirety. As before, microglial identity genes Tyrobp, Hexb and Trem2 were unaffected by IBET858 (FIG. 4B). As expected, LPS causes a time-dependent increase in pro-inflammatory gene expression in microglia (FIGS. 4C-4E). […] BET inhibition specifically decreases the expression of inflammatory genes (Il6, Cd33, and Nlrp3), interferon response pathway (Ifnb, Irf2/9, Mx1) and cell death mediators (Bid, Casp1/4/7/12, Traf1). […] Nicodeme et al., “Suppression of Inflammation by a Synthetic Histone Mimic,” Nature 468:1119-1123 (2010), which is hereby incorporated by reference in its entirety.

Another data set deals with young mice. The note with it: cited from earlier work.
For the next data set, the system named is R6/2 mice. As to the kind of experiment: Survival of R6/2 Huntington's mouse model. Conditions: 30 mg/kg i.p. daily from 6 weeks of age for 5 weeks.
The test system of another data set is primary cortical neurons. The experiment in a line: Seahorse mitochondrial stress test. The format is cell-based, mouse. How it is done: Seahorse Mitochondrial Stress Test. In this assay, two fluorescent probes that detect the concentration of oxygen or protons are added to the culture media. Cellular metabolism causes rapid changes in the concentration of these molecules in the media which can be detected by changes in sensor fluorescence. The oxygen consumption rate (OCR) indicates mitochondrial respiration and the extracellular acidification rate (ECAR) is largely due to glycolysis. Certain pathways can be analyzed by the sequential addition of inhibitors to the media and measuring ensuing changes to the OCR and ECAR. First baseline readings are measured to give an understanding of basal metabolic rates. Then the last step of oxidative phosphorylation, the ATP synthase, is inhibited by oligomycin to determine how much oxygen is being used for ATP production. FCCP is next added to decouple the electron transport chain from the ATP synthase by increasing proton permeability of the membrane which drives oxidative phosphorylation to its maximum. Lastly, complex I is inhibited by rotenone to completely shut down mitochondrial respiration. Any oxygen that is consumed after rotenone is due to other cellular processes such as fatty acid metabolism. On the day of the assay, cultures were washed times with artificial CSF (aCSF) [120 mM NaCl, 3.5 mM KCl, 1.3 mM CaCl2, 1 mM MgCl2, 0.4 mM KH2PO4, 5 mM HEPES, 0.4% BSA, 10 mM Sodium-pyruvate, 15 mM Glucose], and incubated at 37° C. without CO2 for one hour prior to assay. Oxygen Consumption rate (OCR) was measured using the Seahorse XFe24 Analyzer (Agilent), under basal conditions and after the sequential addition of […] [carbonyl cyanide p-(trifluoromethoxy) phenylhydrazone], […]. Metrics were calculated according to the following equations. All values were calculated per well and normalized to cell number for each experiment. Each experiment was normalized to the average of all controls across all experiments (n=3) performed.
To understand if this was the case, the major energetic pathway in neurons, mitochondrial respiration, after BET inhibition was assessed using Seahorse technology. […] In addition to lower mitochondrial activity, proton leak which contributes to the production of reactive oxygen species (ROS) is lower after BET inhibition. Because increased ROS levels are detrimental to neuronal health, lower ROS production could also increase neuronal survival after BET inhibition.
Glycolysis also contributes to neuronal metabolism and several key glycolytic metabolites (Fructose 6-phosphate, Glucose-6-phosphate, Phosphoenolpyruvate) were decreased after IBET858. […] Additionally, the decreased maximal responses indicate that this metabolic state is relatively stable.

As for `CC(=O)N1c2ccc(-c3ccc(CN4CCCCC4)cc3)cc2[C@H](Nc2ccccc2)CC1C` (stereo in doubt) [IBET858], in data set [1] (1 μM), the “chemotaxis, cell proliferation and NFkB pathway genes after LPS” value is reported as “insensitive”; the “microglial identity genes Tyrobp, Hexb and Trem2 after LPS” value is “unaffected”. In data set [1] (1 μM pretreatment 30 min, LPS 1 h), the LPS gene induction entry is listed as “little effect”. Also, the “LPS induced genes inhibited / LPS induced genes” value in data set [1] (LPS 4 hours) is given as 514/960. In data set [1] (LPS 12 hours), the “LPS induced genes inhibited / LPS induced genes” value is 484/747. In addition, the “neuronal gene expression in young mice” value in the data set on young mice (mouse, in vivo) was “selective suppression of neuronal gene expression”. Besides, in the data set on young mice (pharmacological suppression of BET proteins in the brain of young mice), the “behavioural phenotype of young mice” value is recorded as “development of an autism-like syndrome”. Moreover, in the data set with R6/2 mice, the survival result is given as “rescued survival”. Further, the mitochondrial coupling efficiency entry in the data set with primary cortical neurons (24 h or 1 week IBET858) is on record as “increased coupling efficiency”. Also, in the data set on primary cortical neurons (chronic BET inhibition), the “basal glycolysis (extracellular acidification rate)” value is given as “slightly decreased”, the “basal mitochondrial respiration rates” value is on record as “significantly decreases”, the “decrease in ATP production” value is on record as 50% and the maximum glycolytic rate result is listed as “significantly attenuated”. In the data set on primary cortical neurons (chronic BET inhibition), the maximum mitochondrial activity result is “also decreased” and the proton leak entry is reported as “lower”.

Source of the values: US12691124B2, “Methods of controlling and improving brain health” (ICAHN SCHOOL OF MEDICINE AT MOUNT SINAI, priority 2019, dated 2026).
